Results taken from the supplement of paper PMC10307832.

Tests used:
Test in all cases: relative viability (nuclei count vs DMSO), 5 days (fraction); higher = more cells survive
[1] = compound: Cn1cncc1[C@@](N)(c1ccc(Cl)cc1)c1ccc2c(c1)c(-c1cccc(Cl)c1)cc(=O)n2C [Tipifarnib] + Nc1ncn([C@H]2C[C@H](O)[C@@H](CO)O2)c(=O)n1 [Decitabine] (partner 2 µM)
How it was run: (§1)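 The day after seeding in 1536-well plates, lung cancer cell lines were treated by pin tool with a single drug, or with a fixed anchor-drug dose together with five library-drug doses (not always all listed) in √10 steps. After 5 days, a combined fix-and-stain solution (final 0.05% Triton X-100, 1% formaldehyde, 1 ug/ml Hoechst) was added. Nuclei counted on 4× images gave relative viability as treated counts over vehicle counts, reported as the median of duplicate plates.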

[2] = compound: Cn1cncc1[C@@](N)(c1ccc(Cl)cc1)c1ccc2c(c1)c(-c1cccc(Cl)c1)cc(=O)n2C [Tipifarnib] + COc1cc2c(Oc3ccc(NC(=O)C4(C(=O)Nc5ccc(F)cc5)CC4)cc3F)ccnc2cc1OCCCN1CCOCC1 [Foretinib] (partner 0.25 µM)
How it was run: as §1

[3] = compound: Cn1cncc1[C@@](N)(c1ccc(Cl)cc1)c1ccc2c(c1)c(-c1cccc(Cl)c1)cc(=O)n2C [Tipifarnib] + Cc1nc(Nc2ncc(C(=O)Nc3c(C)cccc3Cl)s2)cc(N2CCN(CCO)CC2)n1 [Dasatinib] (partner 0.075 µM)
How it was run: as §1

[4] = compound: Cn1cncc1[C@@](N)(c1ccc(Cl)cc1)c1ccc2c(c1)c(-c1cccc(Cl)c1)cc(=O)n2C [Tipifarnib] + CCNC(=O)c1noc(-c2cc(C(C)C)c(O)cc2O)c1-c1ccc(CN2CCOCC2)cc1 [Luminespib] (partner 0.01 µM)
How it was run: as §1

| Cell Line | relative viability ([1]; first compound 0.01 µM) | relative viability ([1]; first compound 0.03162 µM) | relative viability ([1]; first compound 0.1 µM) | relative viability ([1]; first compound 0.3162 µM) | relative viability ([1]; first compound 1 µM) | relative viability ([2]; first compound 0.01 µM) | relative viability ([2]; first compound 0.03162 µM) | relative viability ([2]; first compound 0.1 µM) | relative viability ([2]; first compound 0.3162 µM) | relative viability ([2]; first compound 1 µM) | relative viability ([3]; first compound 0.01 µM) | relative viability ([3]; first compound 0.03162 µM) | relative viability ([3]; first compound 0.1 µM) | relative viability ([3]; first compound 0.3162 µM) | relative viability ([3]; first compound 1 µM) | relative viability ([4]; first compound 0.01 µM) | relative viability ([4]; first compound 0.03162 µM) | relative viability ([4]; first compound 0.1 µM) | relative viability ([4]; first compound 0.3162 µM) | relative viability ([4]; first compound 1 µM) |
| --- | --- | --- | --- | --- | --- | --- | --- | --- | --- | --- | --- | --- | --- | --- | --- | --- | --- | --- | --- | --- |
| 201T | 0.875 | 0.841 | 0.88 | 0.783 | 0.816 | 1.13 | 1.09 | 1.02 | 0.839 | 0.875 | 0.572 | 0.619 | 0.582 | 0.58 | 0.498 | 1.05 | 1.06 | 0.991 | 0.972 | 0.938 |
| A549 | 0.243 | 0.32 | 0.143 | 0.124 | 0.0674 | 1.03 | 0.843 | 0.386 | 0.296 | 0.366 | – | – | – | – | – | – | – | – | – | – |
| A-427 | 0.621 | 0.548 | 0.574 | 0.478 | 0.449 | 1.19 | 1.06 | 1.06 | 0.873 | 0.927 | 0.753 | 0.719 | 0.598 | 0.494 | 0.326 | 0.828 | 0.877 | 0.849 | 0.691 | 0.548 |
| ABC-1 | 1.33 | 1.03 | 1.13 | 0.738 | 0.706 | 1.28 | – | 0.965 | 0.762 | 0.843 | 0.608 | – | 0.567 | 0.483 | 0.473 | 0.914 | – | 0.321 | 0.347 | 0.278 |
| BEN | 0.748 | 0.759 | 0.66 | 0.699 | 0.503 | 0.609 | 0.686 | 0.529 | 0.484 | 0.379 | 0.313 | 0.294 | 0.321 | 0.255 | 0.254 | 0.324 | 0.459 | 0.226 | 0.17 | 0.351 |
| CAL-12T | – | – | – | – | – | 1.09 | 0.885 | 0.727 | 0.469 | 0.536 | 0.256 | 0.287 | 0.519 | 0.198 | 0.18 | 0.284 | 0.335 | 0.267 | 0.151 | 0.15 |
| COR-L23 | 0.526 | 0.329 | 0.375 | 0.347 | 0.288 | 1.14 | 0.839 | 0.699 | 0.618 | 0.579 | 0.59 | 0.406 | 0.365 | 0.264 | 0.2 | 0.814 | 0.568 | 0.511 | 0.344 | 0.438 |
| COR-L 105 | 0.635 | 0.636 | 0.478 | 0.479 | 0.473 | 1.18 | 0.872 | 0.897 | 0.504 | 0.604 | 0.32 | 0.355 | 0.341 | 0.327 | 0.255 | 0.692 | 0.775 | 0.475 | 0.432 | 0.675 |
| Calu-6 | – | – | – | – | – | 0.886 | 0.62 | 0.698 | 0.518 | 0.424 | – | – | – | – | – | – | – | – | – | – |
| ChaGo-K-1 | 0.542 | 0.535 | 0.549 | 0.483 | 0.465 | 1.06 | 0.873 | 0.848 | 0.852 | 0.665 | 0.622 | 0.56 | 0.589 | 0.525 | 0.324 | 0.669 | 0.558 | 0.454 | 0.505 | 0.389 |
| EBC-1 | – | – | – | – | – | 0.103 | 0.0929 | 0.0996 | 0.113 | 0.0971 | – | – | – | – | – | – | – | – | – | – |
| EKVX | 0.299 | 0.34 | 0.261 | 0.289 | 0.275 | 0.818 | 0.767 | 0.811 | 0.705 | 0.324 | 0.543 | 0.613 | 0.512 | 0.508 | 0.641 | 0.95 | 0.856 | 0.41 | 0.776 | 0.496 |
| EMC-BAC-2 | 1.11 | 0.853 | 0.84 | 0.681 | 0.562 | 1.06 | 0.921 | 1 | 0.9 | 0.82 | 0.324 | 0.336 | 0.319 | 0.305 | 0.258 | 1.27 | 0.907 | 0.974 | 0.847 | 0.752 |
| EPLC-272H | 0.426 | 0.404 | 0.37 | 0.298 | 0.246 | 0.68 | 0.631 | 0.569 | 0.443 | 0.257 | 0.417 | 0.285 | 0.296 | 0.304 | 0.158 | 0.196 | 0.267 | 0.233 | 0.378 | 0.173 |
| H3255 | 0.685 | 0.556 | 0.605 | 0.48 | 0.492 | 0.921 | 0.977 | 0.805 | 0.636 | 0.508 | 0.3 | 0.375 | 0.421 | 0.463 | 0.344 | 1.13 | 0.873 | 0.846 | 0.654 | 0.53 |
| HARA | 0.758 | 0.593 | 0.515 | 0.625 | 0.435 | 1.1 | 0.828 | 0.96 | 0.951 | 0.269 | 0.255 | 0.366 | 0.296 | 0.299 | 0.168 | 0.694 | 0.682 | 0.526 | 0.522 | 0.221 |
